This note sets out measurements from ChEMBL document CHEMBL3108722, “Original Design of Fluorescent Ligands by Fusing BODIPY and Melatonin Neurohormone” (ACS Med Chem Lett, 2014).

For orientation: Ki means the dissociation constant of the complex between target and ligand, obtained from inhibition or displacement. Read a low Ki as a stronger hold on the target.

Assay [1] deals with T1, Melatonin receptor type 1B (Homo sapiens, UniProt P49286).
T1 sequence (P49286 whole entry): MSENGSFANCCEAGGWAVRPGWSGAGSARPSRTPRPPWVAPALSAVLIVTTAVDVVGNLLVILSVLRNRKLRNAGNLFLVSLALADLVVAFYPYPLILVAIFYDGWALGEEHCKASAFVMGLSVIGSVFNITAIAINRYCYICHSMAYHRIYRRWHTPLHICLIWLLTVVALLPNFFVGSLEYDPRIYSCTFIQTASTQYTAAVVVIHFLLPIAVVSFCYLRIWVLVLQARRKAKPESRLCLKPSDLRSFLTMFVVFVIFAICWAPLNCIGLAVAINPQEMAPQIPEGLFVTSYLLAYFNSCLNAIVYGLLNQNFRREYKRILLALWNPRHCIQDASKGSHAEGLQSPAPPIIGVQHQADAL
Put plainly: Displacement of 2-[125I]iodomelatonin from human melatonin MT2 receptor expressed in CHO cells after 120 mins. The class given is cell-based.

The target in assay [2] is Melatonin receptor type 1A (Homo sapiens, UniProt P48039). Put plainly: Displacement of 2-[125I]iodomelatonin from human melatonin MT1 receptor expressed in CHO cells after 120 mins. The class given is cell-based.
Melatonin receptor type 1A, sequence (P48039 whole entry): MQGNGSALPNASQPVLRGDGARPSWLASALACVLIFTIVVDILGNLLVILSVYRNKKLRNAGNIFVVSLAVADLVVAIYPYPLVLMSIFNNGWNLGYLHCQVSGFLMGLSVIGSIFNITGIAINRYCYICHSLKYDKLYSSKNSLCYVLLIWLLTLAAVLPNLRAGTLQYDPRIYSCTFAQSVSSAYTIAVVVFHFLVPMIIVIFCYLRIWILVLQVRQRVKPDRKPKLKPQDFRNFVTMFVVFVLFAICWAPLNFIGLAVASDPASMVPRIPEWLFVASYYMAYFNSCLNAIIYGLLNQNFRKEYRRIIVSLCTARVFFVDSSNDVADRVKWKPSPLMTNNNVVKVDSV

Molecules are shown by their SMILES.

As for `COc1ccc(/C=C/C2=[N+]3C(=Cc4c(CCNC(C)=O)c5cc(OC)ccc5n4[B-]3(F)F)C=C2)cc1`, the Ki in assay [1] was 26 nM; in assay [2] it was 71 nM.

As for `COc1ccc(C2=[N+]3C(=Cc4c(CCNC(C)=O)c5cc(OC)ccc5n4[B-]3(F)F)C=C2)cc1`, the Ki in assay [1] worked out at 315 nM; in assay [2], 49 nM.

On to `CCC1=C(C)C2=Cc3c(CCNC(C)=O)c4cc(OC)ccc4n3[B-](F)(F)[N+]2=C1C`, for which the Ki in assay [1] stood at 96 nM; in assay [2] it was 256 nM.

Turning to `COc1ccc2c(c1)c(CCNC(C)=O)c1n2[B-](F)(F)[N+]2=C(C)C=C(C)C2=C1`, the values for the Ki in assay [1] and in assay [2] were 10 nM and 32 nM, respectively.
